The source of these data is patent US20090176792A1, “SUBSTITUTED DIBENZHYDRYLPIPERAZINES” (AUSPEX PHARMACEUTICALS, INC., priority 2008, published 2009).

The nature of series [1]: In vitro liver microsomal stability assay. As to conditions: human liver microsomes 1 mg per mL, 1 μM, 37° C., vs non-isotopically enriched drug. Here is the method: Test compounds were prepared as solutions in 20% acetonitrile-water and added to the assay mixture (final assay concentration 1 μM) and incubated at 37° C. Final concentration of acetonitrile in the assay should be <1%. Aliquots (50 μL) were taken out at times 0, 15, 30, 45, and 60 min, and diluted with ice cold acetonitrile (200 μL) to stop the reactions. Samples were centrifuged at 12,000 RPM for 10 min to precipitate proteins. Supernatants were transferred to micro centrifuge tubes and stored for LC/MS/MS analysis of the degradation half-life of the test compounds.
For orientation: Liver microsomes are vesicles of endoplasmic reticulum, rich in cytochrome P450 enzymes.

The target in another series is cytochrome P450 CYP2D6 (Homo sapiens, UniProt P10635). As to conditions: cited from earlier work.
Chain of cytochrome P450 CYP2D6 (P10635 whole entry): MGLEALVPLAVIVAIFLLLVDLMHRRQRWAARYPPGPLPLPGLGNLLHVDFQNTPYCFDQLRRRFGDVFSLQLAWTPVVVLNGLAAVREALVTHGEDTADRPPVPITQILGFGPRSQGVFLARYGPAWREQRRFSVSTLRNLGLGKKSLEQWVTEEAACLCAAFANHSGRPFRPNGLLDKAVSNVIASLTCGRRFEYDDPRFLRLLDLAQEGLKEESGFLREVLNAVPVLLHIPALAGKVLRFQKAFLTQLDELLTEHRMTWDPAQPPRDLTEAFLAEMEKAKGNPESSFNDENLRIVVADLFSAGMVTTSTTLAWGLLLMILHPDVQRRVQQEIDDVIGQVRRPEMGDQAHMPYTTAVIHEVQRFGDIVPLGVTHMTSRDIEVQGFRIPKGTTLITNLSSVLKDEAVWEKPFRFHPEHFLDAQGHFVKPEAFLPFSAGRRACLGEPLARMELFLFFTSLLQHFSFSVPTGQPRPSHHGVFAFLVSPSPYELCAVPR

For the compound `CN1CCN(C(c2ccccc2)c2ccccc2)CC1` [Example 1, 1-benzhydryl-4-methylpiperazine], in series [1] (column 0%-5%), the “% Increase of HLM degradation half-life” value is recorded as “+ (0%-5%)”. For the same compound, the “inhibition of cytochrome P450 CYP2D6” value on cytochrome P450 CYP2D6 is “inhibit”.
For `[2H]C([2H])([2H])N1CCN(C(c2ccccc2)c2ccccc2)CC1` [Example 2, d3-1-Benzhydryl-4-methylpiperazine], the “% Increase of HLM degradation half-life” value in series [1] (column 5-15%) is listed as “+ (5-15%)”.
